≈ marks a conversion by molar mass, not a printed value.
Key:
[1] = biological target: 3',5'-cyclic-AMP phosphodiesterase 4D (Homo sapiens, UniProt Q08499); assay: Inhibition of human Phosphodiesterase 4D3 expressed in baculovirus infected Sf9 cells
[2] = biological target: High affinity 3',5'-cyclic-AMP phosphodiesterase 7A (Homo sapiens, UniProt Q13946); assay: Inhibition of human Phosphodiesterase 7A1 expressed in baculovirus infected Sf9 cells
[3] = Solubility at 7.4 pH; format: physicochemical; conditions: pH 7.4
[4] = biological target: cGMP-specific 3',5'-cyclic phosphodiesterase (Homo sapiens, UniProt O76074); assay: Inhibition of human Phosphodiesterase 5 purified from MCF-7 cells; format: cell-free, MCF7
[5] = biological target: cGMP-inhibited 3',5'-cyclic phosphodiesterase 3A (Homo sapiens, UniProt Q14432); assay: Inhibition of human Phosphodiesterase 3A3 expressed in baculovirus infected Sf9 cells
cGMP-inhibited 3',5'-cyclic phosphodiesterase 3A, sequence (Q14432 whole entry): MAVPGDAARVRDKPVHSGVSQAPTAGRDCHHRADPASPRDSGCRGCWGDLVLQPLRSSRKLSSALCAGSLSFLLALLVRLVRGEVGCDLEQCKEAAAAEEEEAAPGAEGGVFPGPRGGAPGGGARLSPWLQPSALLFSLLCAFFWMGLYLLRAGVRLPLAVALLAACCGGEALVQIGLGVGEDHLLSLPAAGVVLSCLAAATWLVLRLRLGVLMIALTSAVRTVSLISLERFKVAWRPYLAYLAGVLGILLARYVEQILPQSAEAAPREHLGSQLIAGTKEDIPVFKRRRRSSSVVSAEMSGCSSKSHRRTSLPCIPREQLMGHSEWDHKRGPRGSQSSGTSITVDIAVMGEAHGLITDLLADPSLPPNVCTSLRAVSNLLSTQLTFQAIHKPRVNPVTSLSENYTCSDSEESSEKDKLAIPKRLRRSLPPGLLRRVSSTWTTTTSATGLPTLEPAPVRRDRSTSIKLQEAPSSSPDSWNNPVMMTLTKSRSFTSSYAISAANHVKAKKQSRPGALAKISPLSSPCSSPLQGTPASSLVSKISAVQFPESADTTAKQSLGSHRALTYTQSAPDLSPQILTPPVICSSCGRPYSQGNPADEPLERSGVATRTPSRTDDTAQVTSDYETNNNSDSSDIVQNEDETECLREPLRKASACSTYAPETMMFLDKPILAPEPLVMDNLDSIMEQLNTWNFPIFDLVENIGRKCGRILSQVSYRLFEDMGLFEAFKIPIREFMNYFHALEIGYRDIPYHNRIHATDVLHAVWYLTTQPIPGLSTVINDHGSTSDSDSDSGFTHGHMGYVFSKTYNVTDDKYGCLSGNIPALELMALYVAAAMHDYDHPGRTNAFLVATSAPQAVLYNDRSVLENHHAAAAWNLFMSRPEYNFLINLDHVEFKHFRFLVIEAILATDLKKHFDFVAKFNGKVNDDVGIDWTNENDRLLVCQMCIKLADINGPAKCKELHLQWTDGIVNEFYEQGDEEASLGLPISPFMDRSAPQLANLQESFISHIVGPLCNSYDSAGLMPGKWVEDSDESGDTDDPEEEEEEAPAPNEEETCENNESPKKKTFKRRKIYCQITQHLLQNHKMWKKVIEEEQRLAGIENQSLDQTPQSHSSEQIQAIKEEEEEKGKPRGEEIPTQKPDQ

Phosphodiesterase 1 = Phosphodiesterase 1 (Homo sapiens, UniProt P54750+Q01064+Q14123); assay: Inhibition of human Phosphodiesterase 1 purified from THP-1 cells; format: cell-free

High affinity 3',5'-cyclic-AMP phosphodiesterase 7A, sequence (Q13946 whole entry): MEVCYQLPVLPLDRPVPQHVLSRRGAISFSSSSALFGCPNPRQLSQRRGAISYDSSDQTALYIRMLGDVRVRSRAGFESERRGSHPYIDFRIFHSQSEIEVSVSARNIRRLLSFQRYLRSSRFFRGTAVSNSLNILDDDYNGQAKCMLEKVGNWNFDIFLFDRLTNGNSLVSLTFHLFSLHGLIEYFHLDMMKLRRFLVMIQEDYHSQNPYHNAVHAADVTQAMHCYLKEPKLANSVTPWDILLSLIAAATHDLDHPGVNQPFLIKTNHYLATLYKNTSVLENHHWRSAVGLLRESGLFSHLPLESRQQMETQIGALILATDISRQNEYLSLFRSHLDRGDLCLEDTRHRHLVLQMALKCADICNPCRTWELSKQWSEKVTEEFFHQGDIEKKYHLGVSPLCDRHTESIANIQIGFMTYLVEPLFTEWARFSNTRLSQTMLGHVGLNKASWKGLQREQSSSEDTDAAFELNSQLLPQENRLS
3',5'-cyclic-AMP phosphodiesterase 4D, sequence (Q08499 whole entry): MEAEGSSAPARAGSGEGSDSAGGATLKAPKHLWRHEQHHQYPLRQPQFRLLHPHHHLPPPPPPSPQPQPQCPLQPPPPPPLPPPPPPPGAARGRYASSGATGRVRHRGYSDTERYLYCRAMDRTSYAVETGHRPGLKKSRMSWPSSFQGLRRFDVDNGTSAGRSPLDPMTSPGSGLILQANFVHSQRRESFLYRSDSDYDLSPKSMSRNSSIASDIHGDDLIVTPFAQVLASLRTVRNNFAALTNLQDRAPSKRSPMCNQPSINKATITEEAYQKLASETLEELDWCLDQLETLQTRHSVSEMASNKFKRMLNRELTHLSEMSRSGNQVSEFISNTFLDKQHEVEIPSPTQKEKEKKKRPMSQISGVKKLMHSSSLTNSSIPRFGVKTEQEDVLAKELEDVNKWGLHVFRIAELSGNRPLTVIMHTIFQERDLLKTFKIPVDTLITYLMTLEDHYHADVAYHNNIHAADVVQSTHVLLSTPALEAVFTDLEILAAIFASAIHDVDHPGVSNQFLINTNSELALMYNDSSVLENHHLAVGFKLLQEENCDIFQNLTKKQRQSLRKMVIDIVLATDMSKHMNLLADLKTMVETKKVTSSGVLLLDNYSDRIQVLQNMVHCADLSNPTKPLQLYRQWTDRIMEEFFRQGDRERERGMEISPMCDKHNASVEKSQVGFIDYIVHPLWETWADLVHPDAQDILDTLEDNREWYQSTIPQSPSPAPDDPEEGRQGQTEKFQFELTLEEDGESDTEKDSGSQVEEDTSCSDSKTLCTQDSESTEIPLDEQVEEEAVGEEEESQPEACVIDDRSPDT

| Compound | IC50 [1] | IC50 [2] | solubility [3] | IC50 [4] | IC50 [5] | IC50 (Phosphodiesterase 1) |
| --- | --- | --- | --- | --- | --- | --- |
| Cn1nc(-c2cccc(S(N)(=O)=O)c2)s/c1=N\C1CCCCC1 | 15 µM | – | – | – | – | – |
| Cn1nc(-c2ccc(C(=O)NCCN3CCOCC3)cc2)s/c1=N\C1CCCCC1 | 8.77 µM | 0.03 µM | 17 µg/mL (≈ 39.6 µM) | – | – | – |
| Cn1nc(-c2ccc(Cl)cc2)s/c1=N\c1cccc(C#N)c1 | 36.3 µM | 5.7 µM | – | > 101 µM | 47.2 µM | > 101 µM |
| Cn1nc(-c2ccc(S(N)(=O)=O)cc2)s/c1=N\C1CCCCC1 | 11 µM | 0.15 µM | – | – | – | – |
| Cn1nc(-c2ccc(Cl)cc2)s/c1=N\C1CN2CCC1C2 (stereo unspecified) | 79 µM | 5.9 µM | – | – | – | – |
| Cn1nc(-c2ccc(Cl)cc2)s/c1=N\C1CCC1 | 6.3 µM | 4.8 µM | – | – | – | – |
| Cn1nc(-c2ccc(O)cc2)s/c1=N\C1CCCCC1 | 12.2 µM | – | – | – | – | – |
| Cn1nc(-c2ccc(C(N)=O)cc2)s/c1=N\C1CCCCC1 | 15.3 µM | 0.06 µM | – | – | – | – |
| Cn1nc(-c2cccc(Cl)c2)s/c1=N\C1CCCCC1 | > 101 µM | – | – | – | – | – |
| CN(C)CCNC(=O)c1ccc(-c2nn(C)/c(=N/C3CCCCC3)s2)cc1 | 33.3 µM | 0.06 µM | 83 µg/mL (≈ 214 µM) | – | – | – |
| Cn1nc(-c2ccc(N)cc2)s/c1=N\C1CCCCC1 | 25.7 µM | 0.56 µM | – | – | – | – |
| Cn1nc(-c2ccc(Cl)cc2)s/c1=N\c1cccc(C(=O)O)c1O | 14.2 µM | 0.26 µM | – | 5.18 µM | 9.83 µM | 9.28 µM |
| Cn1nc(-c2ccc(Cl)cc2)s/c1=N\c1ccc(C(=O)O)cc1 | > 101 µM | 4.6 µM | – | 40.3 µM | 30.7 µM | 28.93 µM |
| Cn1nc(-c2ccc(Cl)cc2)s/c1=N\c1ccc(O)cc1 | 13 µM | 1.7 µM | – | > 101 µM | 101 µM | > 101 µM |
| CCNS(=O)(=O)c1cc(-c2nn(C)/c(=N/C3CCCCC3)s2)ccc1Cl | 5.84 µM | 0.02 µM | – | – | – | – |
| COC(=O)c1ccccc1-c1nn(C)/c(=N/C2CCCCC2)s1 | 30 µM | 7.5 µM | – | – | – | – |
| Cn1nc(-c2ccc(Cl)cc2)s/c1=N\c1cccc(O)c1 | > 101 µM | 1.8 µM | – | 10.9 µM | 6.13 µM | 9.81 µM |
| Cn1nc(-c2ccc(Cl)cc2)s/c1=N\c1c(O)cccc1C(=O)O | 58.2 µM | 1.31 µM | – | 18.8 µM | 49.4 µM | 28.84 µM |
| Cn1nc(-c2ccc(Cl)cc2)s/c1=N\c1cccc(-c2noc(O)n2)c1 | 5.63 µM | 0.44 µM | – | 7.56 µM | 1.89 µM | 3.56 µM |
| Cc1cccc(C(=O)O)c1/N=c1\sc(-c2ccc(Cl)cc2)nn1C | 20.5 µM | 1.37 µM | – | 23.6 µM | 20.5 µM | 14.06 µM |

| Compound | IC50 [1] | IC50 [2] | solubility [3] | IC50 [4] | IC50 [5] | IC50 (Phosphodiesterase 1) |
| --- | --- | --- | --- | --- | --- | --- |
| Cn1nc(-c2ccc(Cl)cc2)s/c1=N\C1CCCCCCC1 | > 101 µM | 1.65 µM | – | – | – | – |
| Cn1nc(-c2ccc(Cl)cc2)s/c1=N\c1cccc(F)c1 | > 101 µM | 6.6 µM | – | > 101 µM | > 101 µM | > 101 µM |
| Cn1nc(-c2ccc3c(N)ncnc3c2)s/c1=N\C1CCCCC1 | > 101 µM | 0.02 µM | – | – | – | – |
| Cn1nc(-c2ccc(Cl)cc2)s/c1=N\C1(CO)CCCC1 | > 101 µM | 4 µM | – | – | – | – |
| Cn1nc(-c2ccc(Cl)cc2)s/c1=N\c1cccc(C(N)=O)c1 | 44.5 µM | 1.63 µM | – | > 101 µM | 2.65 µM | 7.83 µM |
| Cn1nc(-c2ccc(Cl)cc2)s/c1=N\c1cccc(CC(=O)O)c1 | 23 µM | 2.13 µM | – | 20.2 µM | 8.57 µM | 40.34 µM |
| CC(C)/N=c1\sc(-c2ccc(Cl)cc2)nn1C | 17 µM | 3.9 µM | – | – | – | – |
| Cn1nc(-c2ccc(C(N)=O)c(O)c2)s/c1=N\C1CCCCC1 | 19.3 µM | 0.12 µM | – | – | – | – |
| Cn1nc(-c2ccc(Cl)cc2)s/c1=N\C1CC2CCC1C2 (stereo unspecified) | > 101 µM | – | – | – | – | – |
| Cn1nc(-c2ccc(S(C)(=O)=O)cc2)s/c1=N\C1CCCCC1 | 25 µM | 0.13 µM | – | – | – | – |
| Cn1nc(-c2ccc(Cl)cc2)s/c1=N\c1cccc(-c2nn[nH]n2)c1 | 4.26 µM | 0.08 µM | – | 7 µM | 1.71 µM | 3.34 µM |
| COC(=O)c1ccc(-c2nn(C)/c(=N/C3CCCCC3)s2)cc1 | 95.5 µM | – | – | – | – | – |
| Cn1nc(-c2ccc(C(=O)O)cc2)s/c1=N\C1CCCCC1 | 32.2 µM | – | – | – | – | – |
| CN(C)CCN(C)C(=O)c1ccc(-c2nn(C)/c(=N/C3CCCCC3)s2)cc1 | > 101 µM | 0.47 µM | – | – | – | – |
| Cn1nc(-c2ccc(Cl)cc2)s/c1=N\C1CCCCC1 | 57 µM | 1.5 µM | – | – | – | – |
| COc1cc(-c2nn(C)/c(=N/C3CCCCC3)s2)ccc1C(N)=O | > 101 µM | 0.47 µM | – | – | – | – |
| Cn1nc(-c2ccc(Cl)cc2)s/c1=N\c1ccc(F)cc1 | > 101 µM | 2.2 µM | – | 101 µM | > 101 µM | 85.68 µM |
| CCC/N=c1\sc(-c2ccc(Cl)cc2)nn1C | 26 µM | 7.7 µM | – | – | – | – |
| Cn1nc(-c2ccc(Cl)cc2)s/c1=N\c1ccc(O)c(C(=O)O)c1 | 7.05 µM | 0.15 µM | – | 3.97 µM | 5.58 µM | 5.23 µM |
| Cn1nc(-c2ccc(Cl)cc2)s/c1=N\c1cccc(C(=O)O)c1 | 21.3 µM | 0.14 µM | – | 7.27 µM | 7.47 µM | 16.38 µM |

| Compound | IC50 [1] | IC50 [2] | solubility [3] | IC50 [4] | IC50 [5] | IC50 (Phosphodiesterase 1) |
| --- | --- | --- | --- | --- | --- | --- |
| Cc1nc(N)c2ccc(-c3nn(C)/c(=N/C4CCCCC4)s3)cc2n1 | 92.3 µM | 0.0039 µM | – | – | – | – |
| Cn1nc(-c2ccc(Cl)cc2)s/c1=N\c1ccccc1 | 38 µM | 2.95 µM | – | – | – | – |
| Cn1nc(-c2ccc(Cl)cc2)s/c1=N\C(C)(C)CO | 37 µM | 1.9 µM | – | – | – | – |
| Cn1nc(-c2ccc(Cl)cc2)s/c1=N\c1ccc(F)c(C(=O)O)c1 | 39.7 µM | 0.16 µM | – | 17.9 µM | 17 µM | 21.58 µM |
| Cn1nc(-c2cccc(C(=O)O)c2)s/c1=N\C1CCCCC1 | 22.3 µM | – | – | – | – | – |
| COC(=O)c1cccc(-c2nn(C)/c(=N/C3CCCCC3)s2)c1 | 19 µM | 0.14 µM | – | – | – | – |
| Cn1nc(-c2ccccc2O)s/c1=N\C1CCCCC1 | 71 µM | 6.4 µM | – | – | – | – |
| Cn1nc(-c2ccc(C(N)=O)c(N)c2)s/c1=N\C1CCCCC1 | 26 µM | 0.08 µM | – | – | – | – |
| Cc1cc(-c2nn(C)/c(=N/C3CCCCC3)s2)ccc1C(N)=O | 44.7 µM | 0.93 µM | – | – | – | – |
| Cn1nc(-c2ccccc2Cl)s/c1=N\C1CCCCC1 | 40 µM | – | – | – | – | – |
| Cn1nc(-c2ccc(Cl)cc2)s/c1=N\c1ccccc1O | > 101 µM | 5.3 µM | – | > 101 µM | > 101 µM | > 101 µM |
| Cn1nc(-c2ccc(Cl)cc2)s/c1=N\C1CCC(N)CC1 (stereo unspecified) | > 101 µM | 5.9 µM | – | – | – | – |
| Cn1nc(-c2cccc(O)c2)s/c1=N\C1CCCCC1 | 22.2 µM | – | – | – | – | – |
| COc1c(O)cc(-c2nn(C)/c(=N/C3CCCCC3)s2)cc1O | 11.9 µM | 0.06 µM | – | – | – | – |
| Cn1nc(-c2ccc(Cl)cc2)s/c1=N\C1CCCC1 | 81.5 µM | 3.08 µM | – | – | – | – |
| Cn1nc(-c2ccc(Cl)c(S(N)(=O)=O)c2)s/c1=N\C1CCCCC1 | 5.9 µM | 0.06 µM | – | – | – | – |
| CCC(CC)/N=c1\sc(-c2ccc(Cl)cc2)nn1C | > 101 µM | 5.6 µM | – | – | – | – |
| CC(=O)Nc1ccc(-c2nn(C)/c(=N/C3CCCCC3)s2)cc1 | 34.2 µM | – | – | – | – | – |
| Cn1nc(-c2cccc(C(N)=O)c2)s/c1=N\C1CCCCC1 | 19.3 µM | 0.09 µM | – | – | – | – |

Reference: ChEMBL document CHEMBL1137197, “Discovery of thiadiazoles as a novel structural class of potent and selective PDE7 inhibitors. Part 1: design, synthesis and structure-activity relationship studies” (Bioorg Med Chem Lett, 2004)
